Measurements from patent US20230118688A1, “1H-PYRAZOLO[4,3-d]PYRIMIDINE COMPOUNDS AS TOLL-LIKE RECEPTOR 7 (TLR7) AGONISTS” (BRISTOL-MYERS SQUIBB COMPANY, priority 2020, published 2023).
Where two headings read alike, the source gives them in different places.

How the values were obtained:
[1] = molecular target: T1, human TLR7 (Homo sapiens, UniProt Q9NYK1); assay: Human TLR7 agonist activity reporter assay (HEK-Blue TLR7 cells, SEAP reporter); assay type: cell-based; conditions: 18 h treatment
T1 construct: host or cells: HEK-Blue TLR7 cells (engineered human embryonic kidney cells)
T1 sequence (Q9NYK1 27-1049): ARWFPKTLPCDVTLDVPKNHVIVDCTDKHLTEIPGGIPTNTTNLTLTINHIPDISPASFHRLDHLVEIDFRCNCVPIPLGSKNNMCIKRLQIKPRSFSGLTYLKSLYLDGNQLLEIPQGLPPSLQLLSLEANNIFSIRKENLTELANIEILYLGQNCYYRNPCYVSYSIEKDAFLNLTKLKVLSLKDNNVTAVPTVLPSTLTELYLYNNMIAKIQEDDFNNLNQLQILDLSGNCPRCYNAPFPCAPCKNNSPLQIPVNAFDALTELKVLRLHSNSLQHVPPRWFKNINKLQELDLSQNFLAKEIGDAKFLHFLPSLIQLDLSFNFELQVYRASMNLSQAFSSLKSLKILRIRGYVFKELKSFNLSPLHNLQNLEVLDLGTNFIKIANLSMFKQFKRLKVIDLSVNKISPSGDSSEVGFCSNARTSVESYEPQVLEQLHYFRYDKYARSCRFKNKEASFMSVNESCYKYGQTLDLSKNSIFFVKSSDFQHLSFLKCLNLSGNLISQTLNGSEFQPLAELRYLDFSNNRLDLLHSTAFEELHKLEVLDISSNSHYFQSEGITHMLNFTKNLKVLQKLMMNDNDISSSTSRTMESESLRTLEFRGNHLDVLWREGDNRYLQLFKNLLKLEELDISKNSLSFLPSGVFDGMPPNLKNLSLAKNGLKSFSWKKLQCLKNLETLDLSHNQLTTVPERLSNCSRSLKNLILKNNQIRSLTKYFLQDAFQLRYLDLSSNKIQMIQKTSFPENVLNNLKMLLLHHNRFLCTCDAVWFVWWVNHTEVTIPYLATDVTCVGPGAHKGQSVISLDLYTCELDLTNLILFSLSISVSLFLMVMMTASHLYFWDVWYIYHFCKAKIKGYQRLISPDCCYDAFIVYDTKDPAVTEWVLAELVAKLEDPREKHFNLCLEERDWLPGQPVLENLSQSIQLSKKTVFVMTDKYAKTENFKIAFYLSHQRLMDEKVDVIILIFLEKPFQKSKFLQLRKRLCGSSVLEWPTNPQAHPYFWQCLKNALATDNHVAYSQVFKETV
Procedure, shortened: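 HEK-Blue TLR7 cells (15,000/well) treated with compound for 18 h at 37 °C, 5% CO2. Secreted SEAP measured with Quanti-Blue, 30 min, OD 620 nm. EC50 taken as concentration giving half-maximal response between baseline and maximum.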

[2] = tested on: CD69; assay: Induction of CD69 in human whole blood; assay type: cell-based; conditions: 17 h, CD69 surface staining, 100% set to 1 uM resiquimod
Method: The induction of Type I interferon (IFN) MX-1 genes and the B-cell activation marker CD69 are downstream events that occur upon activation of the TLR7 pathway. The following is a human whole blood assay that measures their induction in response to a TLR7 agonist.
Heparinized human whole blood was harvested from human subjects and treated with test TLR7 agonist compounds at 1 mM. The blood was diluted with RPMI 1640 media and Echo was used to predot 10 nL per well giving a final concentration of 1 uM (10 nL in 10 uL of blood). After mixing on a shaker for 30 sec, the plates were covered and placed in a 37° C. chamber for o/n=17 hrs. Fixing/lysis buffer was prepared (5×->1× in H2O, warm at 37° C.; Cat #BD 558049) and kept the perm buffer (on ice) for later use.
For surface markers staining (CD69): prepared surface Abs: 0.045 ul hCD14-FITC (ThermoFisher Cat #MHCD1401)+0.6 ul hCD19-ef450 (ThermoFisher Cat #48-0198-42)+1.5 ul hCD69-PE (cat #BD555531)+0.855 ul FACS buffer. Added 3 ul/well, spin1000 rpm for 1 min and mixed on shaker for 30 sec, put on ice for 30 mins. Stop stimulation after 30 minutes with 70 uL of prewarmed 1× fix/lysis buffer and use Feliex mate to resuspend (15 times, change tips for each plate) and incubate at 37C for 10 minutes.
Centrifuge at 2000 rpm for 5 minutes aspirate with HCS plate washer, mix on shaker for 30 sec and then wash with 70 uL in dPBS and pelleted 2×s (2000 rpm for 5 min) and 50 ul wash in FACS buffer pelleted 1×s(2000 rpm for 5 min). Mix on shaker for 30 sec. For Intracellular markers staining (MX-1): Add 50 ul of BD Perm buffer III and mix on shaker for 30 sec. Incubate on ice for 30 minutes (in the dark). Wash with 50 uL of FACS buffer 2× (spin @2300 rpm×5 min after perm) followed by mixing on shaker for 30 sec. Resuspended in 20 ul of FACS buffer containing MX1 antibody ( ) (4812)-Alexa 647: Novus Biologicals #NBP2-43704AF647) 20 ul FACS bf+0.8 ul hlgG+0.04 ul MX-1. Spin 1000 rpm for 1 min, mix on shaker for 30se and the samples were incubated at RT in the dark for 45 minutes followed by washing 2×FACS buffer (spin @2300 rpm×5 min after perm). Resuspend 20 ul (35 uL total per well) of FACS buffer and cover with foil and place in 4° C. to read the following day. Plates were read on iQuePlus. The results were loaded into toolset and IC50 curves are generated in curve master. The y-axis 100% is set to 1 uM of resiquimod.

[3] = average where assay repeated, Table A1, read-out: hTLR7 Agonism EC50
[4] = average where assay repeated, Table A1, read-out: hWB CD69 EC50
[5] = Table A2, read-out: hTLR7 Agonism EC50
[6] = Table A2, read-out: hWB CD69 EC50

CCC[C@@H](CCO)Nc1nc(N)nc2cnn(Cc3cc(C(=O)N[C@@H]4CCN(C)C4)ccc3OC)c12 [Compound 154, 3-[(5-amino-7-{[(3S)-1-hydroxyhexan-3-yl]amino}-1H-pyrazolo[4,3-d]pyrimidin-1-yl)methyl]-4-methoxy-N-[(3R)-1-methylpyrrolidin-3-yl] benzamide]
EC50 [1, 3]: 280 nM
EC50 [2, 4]: 144 nM

CCC[C@@H](CCO)Nc1nc(N)nc2cnn(Cc3cc(CN4CCNCC4)ccc3OC)c12 [Compound 155, (3S)-3-{[5-amino-1-({2-methoxy-5-[(piperazin-1-yl)-methyl]phenyl}methyl)-1H-pyrazolo[4,3-d]pyrimidin-7-yl]amino}hexan-1-ol]
EC50 [1, 3]: 150 nM
EC50 [2, 4]: 129 nM

CCC[C@@H](CCO)Nc1nc(N)nc2cnn(Cc3cc(CN4CCN(CCO)CC4)ccc3OC)c12 [Compound 156, (3S)-3-({5-amino-1-[(5-{[4-(2-hydroxyethyl)piperazin-1-yl]methyl}-2-methoxy-phenyl)methyl]-1H-pyrazolo[4,3-d]pyrimidin-7-yl}amino)hexan-1-ol]
EC50 [1, 3]: 56.9 nM
EC50 [2, 4]: 73.6 nM

CCC[C@@H](CCO)Nc1nc(N)nc2cnn(Cc3cc(CN4CCN(C)CC4)ccc3OC)c12 [Compound 157, (S)-3-((5-amino-1-(2-methoxy-5-((4-methylpiperazin-1-yl)methyl)benzyl)-1H-pyrazolo[4,3-d]pyrimidin-7-yl)amino)hexan-1-ol]
EC50 [1, 3]: 22.5 nM
EC50 [2, 4]: 13.2 nM

CCC[C@@H](CCO)Nc1nc(N)nc2cnn(Cc3cc(CN4CC5(CN(C)C5)C4)ccc3OC)c12 [Compound 158, (3S)-3-[(5-amino-1-{[2-methoxy-5-({6-methyl-2,6-diazaspiro[3.3]heptan-2-yl}methyl)phenyl]methyl}-1H-pyrazolo[4,3-d]pyrimidin-7-yl)amino]-hexan-1-ol]
EC50 [1, 3]: 604 nM
EC50 [2, 4]: 199 nM

CCC[C@@H](CCO)Nc1nc(N)nc2c(C)nn(Cc3cc(CN4CCN(CCO)CC4)ccc3OC)c12 [Compound 159, (3S)-3-({5-amino-1-[(5-{[4-(2-hydroxyethyl)piperazin-1-yl]methyl}-2-methoxyphenyl)methyl]-3-methyl-1H-pyrazolo[4,3-d]pyrimidin-7-yl}amino)hexan-1-ol]
EC50 [1, 3]: 98.6 nM
EC50 [2, 4]: 37.1 nM

COc1ccc(CN2CC(OC)C2)cc1Cn1ncc2nc(N)nc(NCC[C@H](O)C3CC3)c21 [Compound 160, (1S)-3-{[5-amino-1-({2-methoxy-5-[(3-methoxy-azetidin-1-yl)methyl]phenyl}-methyl)-1H-pyrazolo[4,3-d]pyrimidin-7-yl]amino}-1-cyclopropylpropan-1-ol]
EC50 [1, 3]: 740 nM
EC50 [2, 4]: 151 nM

CCC[C@@H](CCO)Nc1nc(N)nc2c(C)nn(Cc3cc(CN4CCNCC4)ccc3OC)c12 [Compound 161, (3S)-3-{[5-amino-1-({2-methoxy-5-[(piperazin-1-yl)methyl]phenyl}methyl)-3-methyl-1H-pyrazolo[4,3-d]pyrimidin-7-yl]amino}hexan-1-ol]
EC50 [1, 3]: 340 nM
EC50 [2, 4]: 132 nM

CCC[C@@H](CCO)Nc1nc(N)nc2c(C)nn(Cc3cc(CNC4CCOCC4)ccc3OC)c12 [Compound 162, (3S)-3-({5-amino-1-[(2-methoxy-5-{[(oxan-4-yl)amino]methyl}phenyl)methyl]-3-methyl-1H-pyrazolo[4,3-d]pyrimidin-7-yl}amino)-hexan-1-ol]
EC50 [1, 3]: 294 nM
EC50 [2, 4]: 90.3 nM

CC[C@@H](CCO)Nc1nc(N)nc2cnn(Cc3cc(CN4CCN(C)CC4)ccc3OC)c12 [Compound 163, (3S)-3-{[5-amino-1-({2-methoxy-5-[(4-methylpiperazin-1-yl)methyl]phenyl}methyl)-1H-pyrazolo[43-d]pyrimidin-7-yl]amino}pentan-l-ol]
EC50 [1, 3]: 267 nM
EC50 [2, 4]: 119 nM

CCC[C@@H](CCO)Nc1nc(N)nc2c(C)nn(Cc3cc(CN4CCN(C)CC4)ccc3OC)c12 [Compound 164, (3S)-3-{[5-amino-1-({2-methoxy-5-[(4-methylpiperazin-1-yl)methyl]phenyl}methyl)-3-methyl-1H-pyrazolo[4,3-d]pyrimidin-7-yl]amino}hexan-1-ol]
EC50 [1, 3]: 48.5 nM
EC50 [2, 4]: 21.7 nM

CCC[C@@H](CCO)Nc1nc(N)nc2cnn(Cc3cc(CNC4CCOCC4)c(F)cc3OC)c12 [Compound 165, (3S)-3-({5-amino-1-[(4-fluoro-2-methoxy-5-{[(oxan-4-yl)amino]-methyl}phenyl)methyl]-1H-pyrazolo[4,3-d]pyrimidin-7-yl}amino)hexan-1-ol]
EC50 [1, 5]: 89.9 nM
EC50 [2, 6]: 27.3 nM

CCC[C@@H](CCO)Nc1nc(N)nc2cnn(Cc3cc(CN4CC(O)C4)c(F)cc3OC)c12 [Compound 166, 1-({5-[(5-amino-7-{[(3S)-1-hydroxyhexan-3-yl]amino}-1H-pyrazolo[4,3-d]pyrimidin-1-yl)methyl]-2-fluoro-4-methoxyphenyl}-methyl)azetidin-3-ol]
EC50 [1, 5]: 116 nM
EC50 [2, 6]: 34.2 nM

CCC[C@@H](CCO)Nc1nc(N)nc2cnn(Cc3cc(CN4CCNCC4)c(F)cc3OC)c12 [Compound 167, (3S)-3-{[5-amino-1-({4-fluoro-2-methoxy-5-[(piperazin-1-yl)methyl]phenyl}methyl)-1H-pyrazolo[4,3-d]pyrimidin-7-yl]amino}hexan-1-ol]
EC50 [1, 5]: 189 nM
EC50 [2, 6]: 145 nM

CCC[C@@H](CCO)Nc1nc(N)nc2cnn(Cc3cc(CN4CCN(CCO)CC4)c(F)cc3OC)c12 [Compound 168, (3S)-3-({5-amino-1-[(4-fluoro-5-{[4-(2-hydroxyethyl)piperazin-1-yl]methyl}-2-methoxyphenyl)-methyl]-1H-pyrazolo[4,3-d]pyrimidin-7-yl}amino)hexan-1-ol]
EC50 [1, 5]: 62.8 nM
EC50 [2, 6]: 39.2 nM

CCC[C@@H](CCO)Nc1nc(N)nc2cnn(Cc3cc(CNC)c(F)cc3OC)c12 [Compound 169, (3S)-3-{[5-amino-1-({4-fluoro-2-methoxy-5-[(methylamino)-methyl]phenyl}methyl)-1H-pyrazolo[4,3-d]pyrimidin-7-yl]amino}hexan-1-ol]
EC50 [1, 5]: 43.5 nM
EC50 [2, 6]: 6.2 nM

CCC[C@@H](CCO)Nc1nc(N)nc2cnn(Cc3cc(CN(C)CCN(C)C)cnc3OC)c12 [Compound 170, (3S)-3-[(5-amino-1-{[5-({[2-(dimethyl-amino)ethyl](methyl)amino}-methyl)-2-methoxypyridin-3-yl]methyl}-1H-pyrazolo[4,3-d]pyrimidin-7-yl)amino]hexan-1-ol]
EC50 [1, 5]: 770 nM
EC50 [2, 6]: 170 nM
